Our source for the MIC values is patent US20250042912A1, “NOVEL NON-FLUORINATED QUINOLONE COMPOUND AND USE THEREOF” (priority 2021, published 2025).

The test system of test [1] is Propionibacterium acnes ATCC 11827. Kind of test: Minimum inhibitory concentration (MIC) assay, Propionibacterium acnes ATCC 11827. Conditions: Cutibacterium acnes, ATCC11827; anaerobic culture 35+/-2°C, 48 hours; read with naked eyes. The test is classed as cell-based. On the procedure: On the day of the experiment, the compound in the flask was dissolved in 100% DMSO until the concentration of mother liquor was 0.4 mg/mL. If the mother liquor was not used on the same day, it was stored at −80° C. for future use. The compound mother liquor and standard antibiotics were subjected to 2-fold gradient dilution with corresponding solvents on a 96-microwell plate (V-bottom) to obtain 100× working solutions (Well 1 to Well 7) in sequence. Among them, the concentrations of the compound were 400 μg/mL, 200 μg/mL, 100 μg/mL, 50 μg/mL, 25 μg/mL, 12.5 μg/mL, 6.25 μg/mL, and 3.125 μg/mL. 100% DMSO was used as growth control (Well 8). As such, the compound motherplate was obtained. Two days before the experiment, anaerobic bacteria (Propionibacterium acnes) stored in a cryogenic tube at −80° C. were scribed on an MBA (Brucella Agar+5% (v/v) defibrillated sheep blood+[…] Hemin+1 μg/mLVitamin K1) plate. The anaerobic bacteria were placed in a 35+/−2° C. anaerobic incubator for 42-48 hours of cultivation. On the day of the experiment, the plate was taken out, clones were picked from the plate and suspended in physiological saline. Then, the turbidity of the bacterial suspension (containing 1.0-2.0×10^8 CFU/mL) was adjusted to OD600=0.2 by a turbidity meter. Then, the adjusted bacterial suspension was diluted to an appropriate concentration with the assay culture medium: about 5×10^5 CFU/mL for aerobic bacteria, and about 1×10^6 CFU/mL for anaerobic bacteria. As such, the inoculating solution was obtained. […] Therefore, the final assay concentrations of the compound were 4 μg/mL, 2 μg/mL, 1 μg/mL, 0.5 μg/mL, 0.25 μg/mL, 0.125 μg/mL, 0.06 μg/mL and 0.03 μg/mL. The total volume of each well on the assay plate was 200 μL: containing 1% DMSO, about 5×10^5 CFU/mL of aerobic bacteria and about 1×10^6 CFU/mL of anaerobic bacteria. All assay plates for aerobic bacteria were aerobically cultured at 35+/−2° C. for 16 to 20 hours, and all assay plates for anaerobic bacteria were anaerobically cultured in an anaerobic incubator at 35+/−2° C. for 48 hours. Note: for anaerobic bacteria, both the preparation of bacterial solution in step 2 and the inoculation of bacterial solution in step 3 were operated in an anaerobic workstation.

Test [2] relates to Staphylococcus epidermidis ATCC 35983. Briefly: Minimum inhibitory concentration (MIC) assay, Staphylococcus epidermidis ATCC 35983. The format is cell-based. To be noted: ATCC35983, aerobic culture 35+/-2°C, 16 to 20 hours, read with naked eyes. On the procedure:
On the day of the experiment, the compound in the flask was dissolved in 100% DMSO until the concentration of mother liquor was 0.4 mg/mL. If the mother liquor was not used on the same day, it was stored at −80° C. for future use.
The compound mother liquor and standard antibiotics were subjected to 2-fold gradient dilution with corresponding solvents on a 96-microwell plate (V-bottom) to obtain 100× working solutions (Well 1 to Well 7) in sequence. Among them, the concentrations of the compound were 400 μg/mL, 200 μg/mL, 100 μg/mL, 50 μg/mL, 25 μg/mL, 12.5 μg/mL, 6.25 μg/mL, and 3.125 μg/mL. 100% DMSO was used as growth control (Well 8). As such, the compound motherplate was obtained.
One day before the experiment, aerobic bacteria (Staphylococcus epidermidis) stored in a cryogenic tube at −80° C. were scribed on an MHA (Cation-adjusted Mueller-Hinton agar) plate. The aerobic bacteria were placed in a 35+/−2° C. incubator for 18-24 hours of aerobic cultivation.
On the day of the experiment, the plate was taken out, clones were picked from the plate and suspended in physiological saline. Then, the turbidity of the bacterial suspension (containing 1.0-2.0×10^8 CFU/mL) was adjusted to OD600=0.2 by a turbidity meter. Then, the adjusted bacterial suspension was diluted to an appropriate concentration with the assay culture medium: about 5×10^5 CFU/mL for aerobic bacteria, and about 1×10^6 CFU/mL for anaerobic bacteria. As such, the inoculating solution was obtained.
2 μl of 2-fold series dilution of 100× high-concentration working solution was transferred from a compound mother plate (prepared in step 1) to a round-bottom 96-well plate, and then 198 μL of bacterial inoculating solution (prepared in step 2) was added to each well to obtain an MIC assay plate. Therefore, the final assay concentrations of the compound were 4 μg/mL, 2 μg/mL, 1 μg/mL, 0.5 μg/mL, 0.25 μg/mL, 0.125 μg/mL, 0.06 μg/mL and 0.03 μg/mL. The total volume of each well on the assay plate was 200 μL: containing 1% DMSO, about 5×10^5 CFU/mL of aerobic bacteria and about 1×10^6 CFU/mL of anaerobic bacteria.
All assay plates for aerobic bacteria were aerobically cultured at 35+/−2° C. for 16 to 20 hours, and all assay plates for anaerobic bacteria were anaerobically cultured in an anaerobic incubator at 35+/−2° C. for 48 hours.

≈ marks a conversion by molar mass, not a printed value.

A word on the MIC: it is the smallest concentration in the dilution series that meets the test's criterion for growth inhibition. Higher therefore signals weaker potency. Take `CN(C)c1cc2c(cn1)-c1ccc3c(=O)c(C(=O)O)cn(C4CC4)c3c1COC2` [Compound 6]: the figures for the MIC in test [1] and in test [2] were 0.03 µg/mL (≈ 0.0766 µM) and 0.06 µg/mL (≈ 0.153 µM), respectively.
